# Data: PMC7844219, “Antifibrotic effect of novel neutrophil gelatinase-associated lipocalin inhibitors in cardiac and renal disease models” (Scientific Reports, 2021)
# Key:
# [1] = system: TGFβ-treated mouse kidney fibroblasts; assay: Specificity: gene expression in TGFβ-treated mouse kidney fibroblasts; assay type: cell-based; conditions: 10 µM, Fig. S6
# Protocol: Primary human cardiac fibroblasts (HCF) were obtained from Promocell (Heidelberg, Germany) and maintained in Fibroblast Media 3 following manufacturer’s instructions (Promocell). Cells were used between passages 5 and 7. Cells were stimulated with recombinant hNGAL (500 ng/mL, R&D Systems) or with TGFβ (10 ng/mL, R&D Systems) for 24 h. To assess cell proliferation the MTT test was used following provider’s instructions (Roche). For protein analysis. Primary Mouse Kidney Fibroblasts (MKF) were isolated from Wild Type (WT) mice. Briefly, 8 weeks old mice were sacrificed by cervical dislocation and kidneys were cleaned and rinsed in cold DPBS (Dulbecco's Phosphate-Buffered Saline). The renal cortex was minced and incubated in Dulbecco’s modified eagle medium/Nutrient mixture F-12 (DMEM/F12, Sigma) containing 1 mg/mL collagenase A (Roche) during 25 min at 37 °C. The digestion was inactivated by adding culture medium (DMEM/F12 + 10% FBS) then the cell suspension was passed through a 100-μm cell strainer. […]
# Frozen tissues (kidneys, heart) were homogenized in TRIzol (Life Technologies, Illinois, USA) using FastPrep beads (MP-Bio, CA, USA). cDNAs were generated using the Superscript II reverse transcriptase kit (Invitrogen,NY, USA), and qPCR was performed as previously described. Briefly, transcript levels were analysed in a CFX396 apparatus (Biorad). […]
# Aqueous solubility = assay type: physicochemical
# Protocol: (§1) Several parameters have been evaluated to determine ADME-Tox profile of the compounds. Two specific toxicity assays have been performed to assess hepatoxicity and cardiotoxicity. Hepatotoxicity was evaluated in isolated hepatocytes from swiss mice and determined by the thiazolyl blue tetrazolium bromide colorimetric assay (sigma, St Louis, MO, USA). Cardiotoxicity was evaluated using the commercially available Predictor hERG fluorescence polarization kit (Thermo Fisher Scientific, Illinois, USA). Several absorption, distribution, metabolism, and excretion (ADME) assays have been carried out. The following experiments were undertaken: stability in human microsomes, binding to human plasma protein, and CYP3A4 inhibition assay (Vivid CYP3A4 assay, Thermo Fisher Scientific, Illinois, USA). Physico-chemical properties were also assessed such as aqueous solubility and chemical stability.
# Chemical stability = assay type: physicochemical
# Protocol: as §1
# CYP3A4 = target: T1, CYP3A4 (Homo sapiens, UniProt P08684); assay: CYP3A4 inhibition assay (Vivid CYP3A4 assay); assay type: in vitro ADME
# T1 construct: purchased Thermo Fisher Scientific
# T1 sequence (P08684 whole entry): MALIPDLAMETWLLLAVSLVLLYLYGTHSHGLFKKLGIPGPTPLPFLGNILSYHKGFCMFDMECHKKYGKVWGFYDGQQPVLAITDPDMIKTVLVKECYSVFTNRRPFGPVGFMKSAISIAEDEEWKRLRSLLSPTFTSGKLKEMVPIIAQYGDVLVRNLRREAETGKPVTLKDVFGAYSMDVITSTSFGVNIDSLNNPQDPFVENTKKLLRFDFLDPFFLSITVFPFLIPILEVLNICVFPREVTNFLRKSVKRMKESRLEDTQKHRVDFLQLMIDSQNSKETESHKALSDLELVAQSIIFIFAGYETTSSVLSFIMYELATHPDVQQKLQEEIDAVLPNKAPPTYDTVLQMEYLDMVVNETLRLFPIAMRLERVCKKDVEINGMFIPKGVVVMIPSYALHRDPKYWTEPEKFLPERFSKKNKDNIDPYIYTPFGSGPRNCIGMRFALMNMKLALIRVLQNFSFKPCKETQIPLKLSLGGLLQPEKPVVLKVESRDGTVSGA
# Protocol: as §1
smiles,measurement,setting,value
CC(=O)c1cccc(S(=O)(=O)NCc2ccccc2-n2cccn2)c1 [GPZ614741],"Effect on TGFβ-induced gene expression of Col I, Fibronectin and IL6",[1],no inhibitory effect
same,"Solubility in aqueous buffers, in words",Aqueous solubility,perfectly soluble
same,Aquous solubility %,Aqueous solubility; Table S5,100%
same,"Stability to acidic pH, in words",Chemical stability,fully stable
same,Chemical Stability %,Chemical stability; Table S5,103%
same,"Processing by CYP3A4, in words",CYP3A4,partially processed by CYP3A4
same,CyP 3A4 Inhibition % (100= no inhibition),CYP3A4; Table S5,72.21 ± 1.94%
